Results published in patent US7220727B2, “Aminoglycosides as antibiotics” (priority 2000, dated 2007).

Tests used:
E. coli JM83 (APH(3′)-I) = assay: MIC, microdilution broth, E. coli hyper-expressing APH(3′)-I; format: cell-based, Escherichia coli; settings: for antibiotic activity / fold lower activity than tobramycin and amikacin: E. coli hyper-expressing APH(3′)-I
Excerpt: (§1) Escherichia coli JM83 is an antibiotic-sensitive laboratory strain. E. coli JM83 (APH(3′)-I) contains high copies (500–700 copies per cell) of plasmid pUC19 with the cloned kanamycin resistance gene from transposon Tn903 that produces the type I aminoglycoside 3′-phosphotransferase. APH(3′)-I is the most common aminoglycoside phosphotransferase in gram-negative bacteria. E. coli JM83 (AAC6′/APH2″) contains a plasmid with the gene for the bifunctional aminoglycoside-modifying enzyme AAC(6′)/APH(2″), which is produced by many cocci. The enzyme is able to phosphorylate at the 2″ position and/or acetylate at the 6′ position of various aminoglycoside antibiotics to manifest resistance for the organisms that express it. Serratia marcescens ATCC 13880, Enterobacter cloacae ATCC 3047, Pseudomonas aeruginosa 66 and C43 are representative important gram-negative pathogens. Aminoglycosides by themselves or in combination with other antibiotics are often used to combat these microorganisms, especially P. aeruginosa that is often very difficult to treat. Staphylococcus aureus 3 and Enterococcus faecium 119 are representatives of the cocci. Most of these microorganisms are intrinsically resistant to aminoglycosides (poor permeability), but in combination with β-lactam antibiotics are often used to treat infections caused by these microorganisms.
(§2) The MICs of all antibiotics, including the compounds of the present invention (i.e., the compounds of formula (I)), were determined by microdilution method broth procedure. Sequential twofold dilutions of antibiotics were performed in 100 μL of Luria-Bertani (LB) broth in sterile 96-well microtiter plates. Overnight cultures of bacteria were diluted 100 times in LB broth and subgrown for several hours and 10 μL of diluted cultures were transferred into the antibiotic containing microtiter plates to bring final inoculums to 10^5 CFU/mL (CFU stands for the colony forming units). Cultures were incubated overnight at 35° C. and microtiter plates were checked from below with a reflective viewer.

[1] = test system: E. coli JM83 (AAC6′/APH2″); assay: MIC, microdilution broth, E. coli hyper-expressing AAC(6′)/APH(2″); format: cell-based, Escherichia coli; settings: for antibiotic activity: E. coli hyper-expressing AAC(6′)/APH(2″)
Excerpt: as §1, §2

Escherichia coli JM83 = assay: MIC, microdilution broth, E. coli JM83; format: cell-based; settings: E. coli JM83, antibiotic-sensitive laboratory strain
Excerpt: as §1, with “Most of these microorganisms are intrinsically resistant to aminoglycosides (poor permeability), but in combination with β-lactam antibiotics are often used to treat infections caused by these microorganisms.” left out
(§3) The MICs of all antibiotics, including the compounds of the present invention (i.e., the compounds of formula (I)), were determined by microdilution method broth procedure. […]

[2] = test system: Serratia marcescens ATCC 13880; assay: MIC, microdilution broth, S. marcescens; format: cell-based
Excerpt: as §1, §2

[3] = test system: Enterobacter cloacae ATCC 3047; assay: MIC, microdilution broth, E. cloacae; format: cell-based
Excerpt: as §1, §2

Staphylococcus aureus 3 = assay: MIC, microdilution broth, S. aureus; format: cell-based; settings: S. aureus 3
Excerpt: as §1, §2

[4] = test system: any of the microorganisms tested; assay: MIC, microdilution broth, whole panel of bacterial strains; format: cell-based; settings: whole spectrum of strains
Excerpt: as §1, with “Most of these microorganisms are intrinsically resistant to aminoglycosides (poor permeability), but in combination with β-lactam antibiotics are often used to treat infections caused by these microorganisms.” left out
as §3

[5] = test system: Pseudomonas aeruginosa 66 and C43; assay: MIC, microdilution broth, P. aeruginosa; format: cell-based
Excerpt: as §1, §2

Enterococcus faecium 119 = assay: MIC, microdilution broth, E. faecium; format: cell-based; settings: E. faecium 119, moderately resistant to aminoglycosides
Excerpt: as §1, with “Most of these microorganisms are intrinsically resistant to aminoglycosides (poor permeability), but in combination with β-lactam antibiotics are often used to treat infections caused by these microorganisms.” left out
as §3

F-AS = assay: Binding to A-site rRNA template; settings: specific assay conditions; compared with compound 4 for F-AS

| Molecule | antibiotic activity (E. coli JM83 (APH(3′)-I)) | antibiotic activity [1] | antibiotic activity [2] | antibiotic activity [3] | antibiotic activity (Staphylococcus aureus 3) | antibiotic activity [5] | binding to RNA (F-AS) | also measured |
| --- | --- | --- | --- | --- | --- | --- | --- | --- |
| 6-O-[2-N-(3-Propylamino)ethylamino]neamine [Compound 6] | not active | not active | demonstrates activity | demonstrates activity | demonstrates activity | – | – | antibiotic activity (Escherichia coli JM83): demonstrates activity; overall antibiotic activity [4]: lower activity than compound 3 |
| NCCNCCOC1C(NC(=O)[C@@H](O)CCN)CC(N)C(O[C@H]2O[C@H](CN)[C@@H](O)[C@H](O)[C@H]2N)C1O (stereo partly drawn) [Compound 3, 1-N-[(S)-4-Amino-2-hydroxybutanoyl]-6-O-[2-N-(2-ethylamino)ethylamino]neamine] | – | – | – | – | – | – | – | MIC values relative to compounds 4 and 5 [4]: approximately four-fold higher |
| NCCCNCCOC1C(NC(=O)[C@@H](O)CCN)CC(N)C(O[C@H]2O[C@H](CN)[C@@H](O)[C@H](O)[C@H]2N)C1O (stereo partly drawn) [Compound 4, 1-N-[(S)-4-Amino-2-hydroxybutanoyl]-6-O-[2-N-(3-propylamino)ethylamino]neamine] | good activity | good activity | excellent activities | excellent activities | good activities | excellent activities | – | fold lower activity than tobramycin and amikacin (E. coli JM83 (APH(3′)-I)): 8 fold; antibiotic activity (Enterococcus faecium 119): good activities |
| NCCCCNCCOC1C(NC(=O)[C@@H](O)CCN)CC(N)C(O[C@H]2O[C@H](CN)[C@@H](O)[C@H](O)[C@H]2N)C1O (stereo partly drawn) [Compound 5, 1-N-[(S)-4-Amino-2-hydroxybutanoyl]-6-O-[2-N-(4-butylamino)ethylamino]neamine] | good activity | good activity | excellent activities | excellent activities | good activities | excellent activities | comparable binding affinity | fold lower activity than tobramycin and amikacin (E. coli JM83 (APH(3′)-I)): 8 fold; antibiotic activity (Enterococcus faecium 119): good activities |
| NCCCN(CCOC1C(NC(=O)[C@@H](O)CCN)CC(N)C(O[C@H]2O[C@H](CN)[C@@H](O)[C@H](O)[C@H]2N)C1O)C(=O)[C@@H](O)CCN (stereo partly drawn) [Compound 7, 1-N,6-O-(2-N)-Bis[(S)-4-amino-2-hydroxybutanoyl]-6-O-[2-N-(3-propylamino)ethylamino]neamine] | moderate activity | moderate activity | moderate activity | moderate activity | – | moderate activity | – | MIC (E. coli JM83 (APH(3′)-I); E. coli strain producing APH(3′)-I): 64 µg/mL; MIC ([1]; E. coli strain producing AAC(6′)/APH(2″)): 32 µg/mL |
| NCCCCNCCOC1C(NC(=O)Cc2ccc(N)cc2)CC(N)C(O[C@H]2O[C@H](CN)[C@@H](O)[C@H](O)[C@H]2N)C1O (stereo partly shown) [Compound 8, 1-N-[4-Aminophenylethanoyl]-6-O-[2-N-(4-butylamino)ethylamino]neamine] | – | – | – | – | – | – | do bind to the RNA | – |
| NCCCCNCCOC1C(NC(=O)Cc2cccc(N)c2)CC(N)C(O[C@H]2O[C@H](CN)[C@@H](O)[C@H](O)[C@H]2N)C1O (stereo partly shown) [Compound 9, 1-N-[3-Aminophenylethanoyl]-6-O-[2-N-(4-butylamino)ethylamino]neamine] | – | – | – | – | – | – | do bind to the RNA | – |
